Data on 3 compounds can be found in patent US8026228B2, “Estrogenic compounds in combination with progestogenic compounds in hormone-replacement therapy” (Pantarhei Bioscience B.V., priority 2001, dated 2011).

Structures are written as SMILES.

In data set [1] the target is T1, human sex Hormone Binding Globulin (SHBG) (Homo sapiens, UniProt P04278).
T1 construct: Human SHBG was purified from transgenic mouse serum; made in house; host or cells: transgenic mouse (serum)
T1 sequence (P04278 30-402): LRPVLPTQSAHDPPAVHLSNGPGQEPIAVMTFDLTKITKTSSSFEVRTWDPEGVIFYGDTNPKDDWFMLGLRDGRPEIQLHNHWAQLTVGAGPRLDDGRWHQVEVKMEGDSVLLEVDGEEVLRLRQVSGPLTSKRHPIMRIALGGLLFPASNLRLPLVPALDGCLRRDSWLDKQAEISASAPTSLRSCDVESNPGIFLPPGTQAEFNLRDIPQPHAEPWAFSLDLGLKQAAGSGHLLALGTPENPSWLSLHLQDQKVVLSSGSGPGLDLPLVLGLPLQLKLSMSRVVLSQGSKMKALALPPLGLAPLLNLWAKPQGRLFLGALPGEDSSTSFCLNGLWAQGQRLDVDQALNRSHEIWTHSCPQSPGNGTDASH
Briefly: Competitive steroid-binding assay. The note with it: [^3H]DHT or [^3H]estradiol as labeled ligands; order ethinylestradiol, 17β-estradiol, testosterone, 5α-dihydrotestosterone. How it is done: Human SHBG was treated for 30 min at room temperature with a dextran-coated charcoal (DCC) suspension in phosphate buffered saline (PBS) to remove any steroid ligand. After centrifugation (2,000×g for 10 min) to sediment the DCC, the supernatant containing the human SHBG was diluted in PBS to a concentration of 1 nM based on its steroid binding capacity.
The average amounts of [^3H]labeled ligands bound to SHBG at each concentration of competitor (B) were expressed as a percentage of the average amounts of [^3H]labeled ligands bound to SHBG in the absence of competitor (B0), and were plotted against the concentration of competitor in each assay tube.

The test system of data set [2] is morphine-dependent ovariectomized (OVX) rat. Nature of the data set: Hot flush model: naloxone-induced tail skin temperature rise. In kind it is in vivo. The procedure: The morphine-dependent ovariectomized (OVX) rat was used as a model for postmenopausal hot flush. The potency of estetrol (E4) to prevent tail skin temperature rises, normally accompanied by a drop in core body temperature, after naloxone-induced opiate withdrawal was tested. 17α-ethinyl-estradiol (EE) and vehicle (hydroxy propyl-beta-cyclodextrin 20% wt/vol) served as controls in this bioassay.
The morphine-dependent ovariectomized (OVX) rat model has been proposed by several investigators (Katovich et al, 1986, Maturitas, 67-76; Merchenthaler et al. 1998, Maturitas, 307-316) as an animal model for the hot flush. During opiate withdrawal with the morphine antagonist naloxone, tail skin temperature (TST) rises and this rise is accompanied by a drop in core body temperature. In addition, the temperature changes are accompanied by surges in LH and a transient tachycardia. These events are similar in magnitude and temporal nature to those observed in the menopausal hot flush.
Three days prior to the commencement of dosing, animals were anesthetized using a ketamine/xylazine anesthetic mixture and underwent a bilateral ovariectomy. A section of hair on the dorsal surface was shaved and an incision made overlying the lumbar region of the spine. The skin was separated from the underlying fascia so that a second incision could be made through the abdominal musculature approximately caudal to the kidneys. The ovaries were then exteriorized and removed and the musculature was closed with a single suture. The skin incision was closed using surgical staples. Six rats per treatment group were dosed once per day for eight consecutive days prior to and including the day of naloxone-induced opiate withdrawal (the hot flush session). The dosing commenced three days after surgical removal of the ovaries and was administered by oral gavage using a syringe and stainless steel gavage needle. […]
For the hot flush manipulations the animals were placed in a test cage. […] The tail-skin temperature was recorded until it was stable and the animals were then injected with naloxone HCl (1 mg/kg). […]

In data set [3] the test system is immature rat uterus. The note with it: continuous administration from a subcutaneous depot, Martucci et al. 1977; cited from earlier work.
For data set [4], the system named is ovariectomized rats. Briefly: Vaginal cornification bioassay, oral administration. The note with it: relatively low doses 0.1 and 0.3 mg/kg/day, compared with EE. In kind it is in vivo, rat. The text has this:
Uterine weight increase in the rat is more commonly used as a measure of estrogenicity. […] In the early 1920s it was discovered that follicular fluid from the pig ovary contained a factor(s) that caused cornification/keratinization of the vaginal epithelium in the rat (Allen and Doisy, 1923, JAMA, 81, 819-821; Allen and Doisy, 1924, Am. J. Physiol., 69, 577-588). The so-called vaginal cornification response in rats subsequently provided a bioassay for testing estrogenicity. Vaginal epithelial cornification/keratinization in ovariectomized rats can be produced only by compounds considered to be true estrogens (Jones et al, 1973, Fert. Steril. 24, 284-291). […] Adult intact female CD rats were ovariectomized to induce estrogen deficiency. […] Castrate vaginal smears are indicative that complete ovariectomy was achieved. Treatment commenced following completion of the 7 days of smearing (day 0=first day of dosing). Animals were dosed, once daily for 7 consecutive days. Daily vaginal lavages continued to be obtained for 7 days after dosing was initiated in order to detect vaginal cornification, as an indication of an estrogenic response. […] Data are expressed as the number of rats showing vaginal cornification over the number of rats (ratio) treated.

For data set [5] the following is noted: intravenous, two adult women, Fishman et al. 1970; cited from earlier work.
Data set [6] concerns Sham- and OVX-rats. Briefly: Osteoporosis model: ex vivo pQCT densitometry of proximal tibiae. In kind it is in vivo, rat. The note with it: po 0.1-[…], 4 weeks. The procedure: (§1) The ovariectomized aged rat was used as a model for the human disease osteoporosis. This is an established animal model, recommended by the United States Food and Drug Administration (FDA), to evaluate and assess potential agents for osteoporosis prevention and therapy. The anti-resorptive efficacy of estetrol (E4) was tested by ex vivo measuring total and trabecular bone mineral density and bone strength after 4 weeks of treatment at necropsy. 17α-ethinyl-estradiol (EE) and vehicle (1% ethanol/arachidis oil) served as controls in this bioassay.
Three months old female Sprague-Dawley rats were either sham-operated (Sham) or ovariectomized (OVX) one day prior to commencement of the dosing study. Animals were anesthetized using a ketamine/xylazine anesthetic mixture and underwent a bilateral ovariectomy or were sham-treated. […]
Ex vivo peripheral Quantitative Computed Tomography (pQCT) was performed on the excised left tibiae using a Stratec XCT-RM and associated software (Stratec Medizintechnik GmbH, Pforzheim, Germany, software version 5.40). […] The scans were analyzed using a threshold for delineation of the external boundary. The total and trabecular bone mineral content, area and density at each site were determined. […]
(§2) Data are expressed as the mean values obtained for each group (n=10).

Data set [7] has as its system human breast cancer cells (MCF-7). The note with it: in vitro cell proliferation, Jozan et al. 1981; cited from earlier work.
The target in data set [8] is T2, rat uterine nuclear estrogen receptor (Rattus norvegicus, UniProt P06211).
T2 construct: rat uterine cytosol estrogen receptor; host or cells: rat uterus (cytosol; nuclear fraction)
T2 sequence (P06211 1-600): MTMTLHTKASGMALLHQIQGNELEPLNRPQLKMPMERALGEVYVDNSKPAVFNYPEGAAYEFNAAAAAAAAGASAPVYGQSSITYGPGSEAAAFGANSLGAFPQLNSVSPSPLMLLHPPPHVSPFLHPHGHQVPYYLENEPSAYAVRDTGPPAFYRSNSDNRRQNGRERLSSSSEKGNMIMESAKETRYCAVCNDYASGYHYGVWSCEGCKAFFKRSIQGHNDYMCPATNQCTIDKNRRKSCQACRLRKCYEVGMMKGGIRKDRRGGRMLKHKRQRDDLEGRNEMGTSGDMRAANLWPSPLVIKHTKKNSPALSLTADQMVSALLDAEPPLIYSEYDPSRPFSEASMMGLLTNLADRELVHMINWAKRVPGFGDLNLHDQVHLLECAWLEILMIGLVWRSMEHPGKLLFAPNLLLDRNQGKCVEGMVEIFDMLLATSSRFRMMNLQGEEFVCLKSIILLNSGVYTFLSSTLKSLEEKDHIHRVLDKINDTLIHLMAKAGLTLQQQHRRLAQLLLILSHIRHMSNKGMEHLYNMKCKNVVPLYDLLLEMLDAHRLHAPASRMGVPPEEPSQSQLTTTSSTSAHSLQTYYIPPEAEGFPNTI
The note with it: Martucci et al. 1976; cited from earlier work.

Data set [9] relates to Sham- and OVX-rats. Briefly: Osteoporosis model: indentation test of distal femur (bone strength). The note with it: oral treatment, dose-dependent. In kind it is in vivo, rat. How it is done:
as §1
Three months old female Sprague-Dawley rats were either sham-operated (Sham) or ovariectomized (OVX) one day prior to commencement of the dosing study. Animals were anesthetized using a ketamine/xylazine anesthetic mixture and underwent a bilateral ovariectomy or were sham-treated. A section of hair on the dorsal surface was shaved and an incision made overlying the lumbar region of the spine. The skin was separated from the underlying fascia so that a second incision could be made through the abdominal musculature approximately caudal to the kidneys. […]
as §2
The maximum load, stiffness and energy absorbed were determined from load displacement curves. Ultimate strength was calculated by dividing the maximum load by the indenter area. […]

Data set [10] concerns the target T3, rat uterine cytosol estrogen receptor (Rattus norvegicus, UniProt P06211).
T3 construct: rat uterine cytosol estrogen receptor; host or cells: rat uterus (cytosol; nuclear fraction)
T3 sequence (P06211 1-600): T2 sequence (P06211 1-600)
The note with it: Martucci et al. 1976; cited from earlier work.

The test system of data set [11] is estrogen receptors in the human endometrium. The note with it: Tseng et al. 1978; cited from earlier work.

As to `C[C@]12CCC(=O)C[C@@H]1CC[C@@H]1[C@@H]2CC[C@]2(C)[C@@H](O)CC[C@@H]12` [5α-dihydrotestosterone], the “relative binding affinity for human SHBG” value in [1] was “in this order, show an increased relative binding affinity”.
Consider `C[C@]12CC[C@@H]3c4ccc(O)cc4CC[C@H]3[C@@H]1[C@@H](O)[C@@H](O)[C@@H]2O` [E4, 1,3,5(10)-estratrien-3,15α,16α,17β-tetrol], for which the “effect on naloxone-induced TST, dose dependence” value in data set [2] (oral treatment, all doses) was “clear dose-dependent effect”. For the same compound, the “effect on naloxone-induced TST compared with EE” value in data set [2] (po 3.0 mg/kg/day (highest dose)) is “suppressive response similar to the potent oral estrogen, 17α-ethinyl estradiol (EE)”. The “effect on naloxone-induced TST” value in [2] (po 0.3, 1.0 and 3.0 mg/kg/day (three highest doses)) was “attenuated the TST”. For the same compound, the uterotrophic activity entry in [3] was “very weak uterotrophic activity”. Also, in [4], the “onset of vaginal cornification (animals responding at days 1-3)” value is “as fast as in EE-treated animals”. In addition, in data set [5], the excretion entry is “rapidly and completely excreted in urine as the glucosiduronate”; the metabolism result is “virtually no metabolism except for conjugation took place”. In addition, the “total and trabecular bone mineral content and bone mineral density, dose dependence” value in [6] is “consistent dose-dependent increase”. Besides, the “agonistic potency, of the magnitude observed for 17β-estradiol” value in [7] is 2%. Moreover, in [8], the “relative binding affinity, of 17β-estradiol (100%)” value is 0.3%. In addition, in [9], the “declines in maximum load, stiffness, energy and ultimate strength” value is listed as “prevented the declines”. For the same compound, the “relative binding affinity, of 17β-estradiol (100%)” value in [10] is reported as 0.5%. Further, the “relative binding affinity for human SHBG” value in data set [1] is on record as “negligible”. For the same compound, the “relative binding, of 17β-estradiol” value in data set [11] was 1.5%.
For `C[C@]12CC[C@H]3[C@@H](CCC4=CC(=O)CC[C@@]43C)[C@@H]1CC[C@@H]2O` [testosterone], the “relative binding affinity for human SHBG” value in [1] is listed as “in this order, show an increased relative binding affinity”.
